In US10925858B2, “S-nitrosoglutathione (GSNO) and GSNO reductase inhibitors for use in therapy” (MUSC FOUNDATION FOR RESEARCH DEVELOPMENT, priority 2017, dated 2021):

Tests used:
myosin light chain (MLC) = assay: Western analysis of MLC phosphorylation (Ser19) in thrombin treated hBMVECs; type: cell-based, human; conditions: thrombin 0.1 unit/ml 5 min; L-NIO or FeTPPS 10 μM; GSNO or SIN-1 various concentrations
Protocol: (§1) Cell culture: Primary human brain microvascular endothelial cells (hBMVECs) were purchased from Angio-Proteomie (Cat #: cAP-0002, Atlanta, Ga.). The cells were cultured in cell culture flasks or plates precoated with Quick Coating Solution (Angio-Proteomie; Cat #: cAP-01) and maintained in Endothelial Growth Medium (Angio-Proteomie; Cat #: cAP-02) at 37° C. under 5% CO2/95% air. When the cells were almost confluent, the medium was replaced with endothelial basal medium (Angio-Proteomie; Cat #: cAP-03) containing 0.5% fetal bovine serum (FBS; Life Technologies, Grand Island, N.Y.) about 8-12 hours before the experiment. No institutional approval was required for this study. The study was not pre-registered.
Western immunoblot analysis was performed by standard method using 50 μg of cell lysates. Following the SDS-PAGE electrophoresis, proteins were transferred from the gel onto the Polyvinylidene fluoride membrane (GE Healthcare Life Sciences, Marlborough, Mass.). Membranes were blocked with non-fat dry milk (Santa Cruz Biotechnology) or I-Block™ (ThermoFisher Scientific, Waltham, Mass.) for detection of phospho-proteins and incubated with primary antibodies, such as MBP (Santa Cruz Biotech Cat #: sc13914; RRID: AB_648798), phospho-(Ser^19) MLC (Abeam, Cat #: ab2480; RRID: AB_303094), MLC (Abeam, Cat #: ab79935; RRID:AB_1952220), P-actin (Santa Cruz Biotechnology, Cat #: sc-47778; RRID:AB_2714189), phospho-eNOS (Ser^1177) (Cell Signaling, Cat #: 9571; RRID: AB_329837, Danvers, Mass.), eNOS (Cell Signaling, Cat #: 32027), RhoA (Santa Cruz Biotechnology; Cat #: sc418; RRID: AB_628218) or 3-nitrotyrosine (Abeam, Cat #: ab61392; RRID: AB_942087). Following washing, the membranes were incubated with horseradish peroxidase conjugated secondary antibody (Jackson Immunoresearch Lab, West Grove, Pa.), washed and then incubated with ECL reagent (Amersham Life Science, Pittsbrugh, Pa.), and exposed to Amersham Hyperfilm ECL film

RhoA = RhoA activity assay in thrombin treated hBMVECs; type: cell-based, human; conditions: thrombin 0.1 unit/ml 5 min; L-NIO or FeTPPS 10 μM pretreated 30 min; GSNO or SIN-1 various concentrations pretreated 2 hr
Protocol: as §1
RhoA activity in hBMVECs was analyzed by RhoA Activation Assay Kit (Abeam Cat #: ab211164, Cambridge, Mass.). Briefly, following drug treatments, the cells were lysed with 1× Assay buffer provided in the kit. Lysates were centrifuged (14,000×g for 10 sec), and supernatants were incubated with agarose beads coupled to GST-Rhotekin-Rho binding domain (RBD) for 2 h at 4° C. Beads were then washed with 1× Assay buffer and GTP-bound RhoA was eluted with 2×SDS-PAGE sample buffer. Amounts of active (GTP-bound) RhoA were determined by Western blot analysis using antibody specific to RhoA (Abeam).

[1] = Edema (brain water content) in CCI rat model of TBI; type: in vivo, Sprague Dawley rats; conditions: 24 hr after TBI; GSNO 0.05 mg/kg i.v. or FeTPPS 3 mg/kg i.v.
Excerpt: All animals used in this study received humane care in compliance with the Medical University of South Carolina's (MUSC) guidance and the National Research Council's criteria for humane care. Animal procedures were approved by the institutional animal care and use committee of MUSC (AR #2703). For generation of CCI model of TBI, young adult male (˜3-4 months old) Sprague Dawley rats weighing between 260-300 g were randomly divided into four groups: 1) TBI animals treated with vehicle (TBI; n=13), 2) TBI with GSNO (0.05 mg/kg body weight/i.v.) treatment (TBI+GSNO; n=13), 3) TBI with FeTPPS (3 mg/kg body weight, i.v.) treatment (TBI+FeTPPS; n=13), 4) sham-operated treated with vehicle (Sham; n=13). The group size was determined by power analysis based on our previous data (Khan et al., 2016b; Khan et al., 2009). Ketamine (90 mg/kg body weight) and xylazine (10 mg/kg body weight) as surgical anesthesia were administered intraperitoneally. Analgesic buprenorphine was administered pre-emptively to alleviate pain following surgery. […]
At 24 h following CCI, animals were euthanized to determine brain water content (edema) as described earlier (Hoda et al., 2009; Khan et al., 2009). […] Each hemisphere was dried at 60° C. for 72 hours, and the dry weight was determined. Water content was calculated in ipsilateral hemisphere as: water content (%)=(wet weight−dry weight)/wet weight×100.

hBMVECs = assay: Assay of trans-endothelial electrical resistance (TEER) in thrombin treated hBMVECs; type: cell-based, human; conditions: thrombin 0.1 unit/ml; GSNO 100 μM or SIN-1 500 μM pretreated 2 hr
Protocol: as §1, with “pre-registered. For evaluation of the endothelial barrier function, hBMVECs were plated on fibronectin-coated polycarbonate filters (Transwell system, Corning, Midland, N.C.) containing Endothelial Growth Medium (Angio-Proteomie Cat #: cAP-02). The medium was renewed every other day. Five days after seeding, the medium was replaced with Endothelial Basal Medium (Angio-Proteomie Cat #: cAP-03) containing 0.5% FBS and incubated for 2 days. Following drug treatments, transendothelial electrical resistance (TEER) was measured by EVOM2 (Word Precision Instruments) as described previously (Li et al., 2006).” for “pre-registered.”

SMILES	thrombin-induced MLC phosphorylation (myosin light chain (MLC))	thrombin-induced RhoA activation (RhoA)	TBI-induced increase in brain water content [1]	thrombin-induced loss of TEER (hBMVECs)
Cl.O=S(=O)([O-])c1ccc(-c2c3nc(c(-c4ccc(S(=O)(=O)O)cc4)c4ccc([nH]4)c(-c4ccc(S(=O)(=O)O)cc4)c4nc(c(-c5ccc(S(=O)(=O)O)cc5)c5ccc2[nH]5)C=C4)C=C3)cc1.[Fe] [FeTPPS, 5,10,15,20-Tetrakis(4-sulfonatophenyl)porphyrinato Iron (III), Cl, reference compound]	inhibited	decreased	reduced	
N[C@@H](CCC(=O)N[C@@H](CSN=O)C(=O)NCC(=O)O)C(=O)O [GSNO, S-nitrosoglutathione]	attenuated	inhibited	reduced	inhibited
